Measured values published in the Deep4Chem optical property database.

Test: photoluminescence quantum yield (fraction); solvent given as SMILES
[1] = in O=P(c1ccccc1)(c1ccccc1)c1ccccc1Oc1ccccc1P(=O)(c1ccccc1)c1ccccc1

For `COc1cc2c3cc(OC)c(OC)cc3c3cc4c(C)cc(=O)oc4cc3c2cc1OC`, the photoluminescence quantum yield (in CO) was 0.02, the photoluminescence quantum yield (in CS(C)=O) was 0.056 and the photoluminescence quantum yield (in ClC(Cl)Cl) was 0.08.
`N#Cc1cc(C#N)c(-c2ccc(N(c3ccccc3)c3ccccc3)cc2)cc1-c1ccc(N(c2ccccc2)c2ccccc2)cc1` gave a photoluminescence quantum yield (in C1CCCCC1) of 0.75.
Molecule `Cn1c(=O)cc(C(=O)c2ccccc2)c2sc(-c3ccc(N(c4ccccc4)c4ccccc4)cc3)cc21` has a photoluminescence quantum yield (in ClCCl) of 0.05.
`O=c1c2ccccc2nc2ccccn12` showed a photoluminescence quantum yield (in ClCCl) of 0.96.
Work on `CCN(CC)c1ccc(-c2c3c(n4ccc(C(C)=O)cc24)C(=O)N(CCCNC(=O)OC(C)(C)C)C3)cc1` yielded a photoluminescence quantum yield (in CO) of 0.
For `O=C1c2ccccc2-c2cccc(O)c21`, the photoluminescence quantum yield (in C1CCCCC1) was 0.0129, the photoluminescence quantum yield (in C1COCCO1) was 0.0284 and the photoluminescence quantum yield (in CC#N) was 0.053. The photoluminescence quantum yield (in CC(C)O) was 0.024, the photoluminescence quantum yield (in CCCCO) was 0.022 and the photoluminescence quantum yield (in CCCO) was 0.021. It also gave a photoluminescence quantum yield (in CCO) of 0.0197, a photoluminescence quantum yield (in CCOC(C)=O) of 0.0383 and a photoluminescence quantum yield (in CCOCC) of 0.022. For the same molecule, the photoluminescence quantum yield (in CO) was 0.012.
`CCOC(=O)c1sc2nc3c(c(C#N)c2c1N)CCCCCC3` showed a photoluminescence quantum yield (in c1ccccc1) of 0.063.
Work on `N#Cc1c(-c2ccc(N(c3ccccc3)c3ccccc3)cc2)c(C#N)c(-c2ccc(N(c3ccccc3)c3ccccc3)cc2)c(C#N)c1-c1ccc(N(c2ccccc2)c2ccccc2)cc1` yielded a photoluminescence quantum yield [1] of 1.
In the case of `COc1ccc2c3c(c4ccc(OC)cc4c2c1)C(C)(C)c1c-3ccc2ccccc12`, the photoluminescence quantum yield (in C1CCCCC1) is reported as 0.26.
Molecule `c1ccc(-c2nc(-c3ccccc3)nc(-c3ccc(-n4c5ccccc5c5cc6c(cc54)C4c5ccccc5C6c5ccccc54)cc3)n2)cc1` has a photoluminescence quantum yield (in Cc1ccccc1) of 0.77 and a photoluminescence quantum yield [1] of 0.4.
`CCn1c(-c2ccc(-c3ccc(-c4ccc(-c5n(CC)c6ccccc6[n+]5CC)cc4)c(C)c3)cc2)[n+](CC)c2ccccc21` showed a photoluminescence quantum yield (in O) of 0.71.
Work on `F[B-]1(F)N2C=CN=CC2=[N+]2[N+]1=Cc1c(-c3ccccc3)cc(-c3ccccc3)n1[B-]2(F)F` yielded a photoluminescence quantum yield (in ClCCl) of 0.49.
For `C1=Cc2ccccc2C(=Cc2ccc(-c3cc(-c4ccc(C=C5c6ccccc6C=Cc6ccccc65)cc4)c(-c4ccc(C=C5c6ccccc6C=Cc6ccccc65)cc4)cc3-c3ccc(C=C4c5ccccc5C=Cc5ccccc54)cc3)cc2)c2ccccc21`, the photoluminescence quantum yield (in C1CCOC1) was 0.0016.
`CCCCN1c2ccccc2Sc2cc(/C=C\c3cc(=O)oc4ccc(C)cc34)ccc21` showed a photoluminescence quantum yield (in ClC(Cl)Cl) of 0.7.
`Cc1ccc(C2CC(c3ccc(O)cc3)=NN2c2ccc(S(N)(=O)=O)cc2)cc1` (configuration not stated) showed a photoluminescence quantum yield (in C1CCOC1) of 0.7, a photoluminescence quantum yield (in C1COCCO1) of 0.73 and a photoluminescence quantum yield (in CC#N) of 0.64. The photoluminescence quantum yield (in CC(C)O) was 0.5, the photoluminescence quantum yield (in CCO) was 0.43 and the photoluminescence quantum yield (in CCOC(C)=O) was 0.68. It also gave a photoluminescence quantum yield (in CN(C)C=O) of 0.76, a photoluminescence quantum yield (in CO) of 0.33 and a photoluminescence quantum yield (in CS(C)=O) of 0.82. For the same molecule, the photoluminescence quantum yield (in O) was 0.55.
With `CN(C)c1ccc(C#Cc2ccc3c(N(C)C)cc(-c4ccccc4)cc3c2)cc1` the photoluminescence quantum yield (in ClCCl) was 0.76.
Molecule `c1ccc(-c2nc(-c3ccccc3)nc(-c3cccc(-n4c5ccccc5c5c6oc7ccccc7c6ccc54)c3)n2)cc1` has a photoluminescence quantum yield [1] of 0.311.
Work on `CC(=O)Nc1ccc(C2=C/C(=C\c3ccc(C#N)cc3)C(=O)O2)cc1` yielded a photoluminescence quantum yield (in C1COCCO1) of 0.437.
With `C(=C\c1c2ccccc2cc2ccccc12)/c1ccc2ccccc2n1` the photoluminescence quantum yield (in CC1CCCCC1) was 0.41 and the photoluminescence quantum yield (in CC#N) was 0.04.
In the case of `O=[N+]([O-])c1ccc(S(=O)(=O)Nc2ccc(C#Cc3ccc4ccc5ccc(C#Cc6ccc(NS(=O)(=O)c7ccc([N+](=O)[O-])cc7[N+](=O)[O-])cc6)c6ccc3c4c56)cc2)c([N+](=O)[O-])c1`, the photoluminescence quantum yield (in CO) is reported as 0.003.
Molecule `c1cc2ccc3cc4[nH]ccc4c4ccc(c1)c2c34` has a photoluminescence quantum yield (in CCOC(C)=O) of 0.95.
`CN(C)c1ccc(-c2cc(-c3cccs3)nc(-c3ccccc3)n2)cc1` showed a photoluminescence quantum yield (in ClC(Cl)Cl) of 0.46.
With `Cc1ccc(N(c2ccc(C)cc2)c2ccc(-c3ccc(C=C(C#N)C#N)s3)cc2)cc1` the photoluminescence quantum yield (in ClC(Cl)Cl) was 0.07.
For `CC(C)(C)c1ccc(-c2cc(-c3ccc(-c4cc(-c5ccc(C(C)(C)C)cc5)c(C#N)s4)s3)sc2C#N)cc1`, the photoluminescence quantum yield (in ClCCl) was 0.17.
Work on `C#CC1CN2CCC1CC2[C@@H](O)c1ccnc2ccc(OC)cc12` (some centres not stated) yielded a photoluminescence quantum yield (in C1CCOC1) of 0.063, a photoluminescence quantum yield (in CC#N) of 0.008 and a photoluminescence quantum yield (in CCCC#N) of 0.032. For the same molecule, the photoluminescence quantum yield (in Cc1ccccc1) was 0.023 and the photoluminescence quantum yield (in ClCCl) was 0.033.
In the case of `Nc1ccc(N2C(=O)c3ccc4c5ccc6c7c(ccc(c8ccc(c3c48)C2=O)c75)C(=O)N(c2ccc(O)cc2)C6=O)cc1`, the photoluminescence quantum yield (in CN(C)C=O) is reported as 0.95.
Molecule `CC1(C)C(/C=C/C=C/C=C/C=C2/N(c3ccc(S(=O)(=O)[O-])cc3)c3ccc(S(=O)(=O)[O-])cc3C2(C)C)=[N+](c2ccc(S(=O)(=O)[O-])cc2)c2ccc(S(=O)(=O)[O-])cc21` has a photoluminescence quantum yield (in CO) of 0.47 and a photoluminescence quantum yield (in O) of 0.21.
`[NH3+]c1cc([NH3+])cc(-c2[nH+]c3ccccc3s2)c1` showed a photoluminescence quantum yield (in O) of 0.008.
With `C(=C\c1c2ccccc2cc2ccccc12)/c1ccccc1` the photoluminescence quantum yield (in CC1CCCCC1) was 0.46 and the photoluminescence quantum yield (in CC#N) was 0.45.
With `N#Cc1ccc(N)cc1` the photoluminescence quantum yield (in C1CCCCC1) was 0.13, the photoluminescence quantum yield (in CC#N) was 0.12 and the photoluminescence quantum yield (in CCCCCC) was 0.09. The photoluminescence quantum yield (in CCO) was 0.041, the photoluminescence quantum yield (in O) was 0.0046 and the photoluminescence quantum yield (in OCC(F)(F)F) was 0.0052.
Work on `CCN(CC)c1ccc2c(c1)oc(=O)c1cc3c(-c4ccccc4)nn(C)c3nc12` yielded a photoluminescence quantum yield (in C1CCCCC1) of 0.338, a photoluminescence quantum yield (in CCOC(C)=O) of 0.202 and a photoluminescence quantum yield (in CN(C)C=O) of 0.015. The photoluminescence quantum yield (in CO) was 0.002 and the photoluminescence quantum yield (in ClCCl) was 0.292.
`CC(=O)c1c2c(cc3ccc(N(C)C)cc13)CCC2` gave a photoluminescence quantum yield (in C1CCCCC1) of 0.45, a photoluminescence quantum yield (in C1CCOC1) of 0.75 and a photoluminescence quantum yield (in C1COCCO1) of 0.46. The photoluminescence quantum yield (in CC#N) was 0.99, the photoluminescence quantum yield (in CCO) was 0.05 and the photoluminescence quantum yield (in CS(C)=O) was 0.85. For the same molecule, the photoluminescence quantum yield (in Cc1ccccc1) was 0.62, the photoluminescence quantum yield (in ClC(Cl)Cl) was 0.77 and the photoluminescence quantum yield (in ClCCl) was 0.99.
For `F[B-]1(F)n2c(c(-c3ccccc3)c3ccccc32)C(c2ccccc2)=C2C(c3ccccc3)=c3ccccc3=[N+]21`, the photoluminescence quantum yield (in ClCCl) was 0.
In the case of `N#CC(C#N)=Cc1ccc(-c2cccc(-c3nc4ccccc4s3)c2O)s1`, the photoluminescence quantum yield (in CCO) is reported as 0.0956, the photoluminescence quantum yield (in ClCCl) is reported as 0.152 and the photoluminescence quantum yield (in O) is reported as 0.01.
In the case of `c1cc2ccc1-c1ccc(cc1)-c1ccc([se]1)-c1ccc(cc1)-c1ccc(cc1)-c1ccc([se]1)-c1ccc(cc1)-c1ccc(cc1)-c1ccc-2[se]1`, the photoluminescence quantum yield (in C1CCOC1) is reported as 0.08.
`CC(C)(C)c1ccc2c(c1)c1cc(C(C)(C)C)ccc1n2-c1cccc(-c2nc(-c3cccc(-n4c5ccc(C(C)(C)C)cc5c5cc(C(C)(C)C)ccc54)c3)nc(-c3cccc(P(=O)(c4ccccc4)c4ccccc4)c3)n2)c1` showed a photoluminescence quantum yield [1] of 0.55.
For `CCCCCCC(CCCCCC)n1c(=O)c2c3ccc4cccc5c6cccc7ccc(c2c1=O)c(c76)c3c45`, the photoluminescence quantum yield (in C1CCCCC1) was 0.32, the photoluminescence quantum yield (in CC#N) was 0.33 and the photoluminescence quantum yield (in CC(C)=O) was 0.27. It also gave a photoluminescence quantum yield (in CCCCCC) of 0.32, a photoluminescence quantum yield (in CCO) of 0.3 and a photoluminescence quantum yield (in CCOCC) of 0.34. It also gave a photoluminescence quantum yield (in CS(C)=O) of 0.44, a photoluminescence quantum yield (in Cc1ccccc1) of 0.42 and a photoluminescence quantum yield (in ClC(Cl)(Cl)Cl) of 0.37. For the same molecule, the photoluminescence quantum yield (in ClC(Cl)Cl) was 0.35.
For `O=[N+]([O-])c1ccc(C#Cc2ccc3ccccc3c2)cc1`, the photoluminescence quantum yield (in ClC(Cl)Cl) was 0.005 and the photoluminescence quantum yield (in ClCCl) was 0.006.
Work on `c1ccc2c(-c3cc(-c4nccs4)nc(-c4nccs4)c3)cccc2c1` yielded a photoluminescence quantum yield (in CC#N) of 0.33, a photoluminescence quantum yield (in CCCCCC) of 0.411 and a photoluminescence quantum yield (in CO) of 0.207. The photoluminescence quantum yield (in ClC(Cl)Cl) was 0.439.
`CC1=CC(C)=[N+]2C1=C(c1ccc3cccnc3n1)c1c(C)cc(C)n1[B-]2(F)F` showed a photoluminescence quantum yield (in CC#N) of 0.04, a photoluminescence quantum yield (in CCCCCC) of 0.08 and a photoluminescence quantum yield (in CO) of 0.16. The photoluminescence quantum yield (in ClC(Cl)Cl) was 0.07 and the photoluminescence quantum yield (in ClCCl) was 0.06.
In the case of `COc1ccc(-c2c3cc4ccccc4cc3c(C#Cc3ccccc3)c3cc4cc(C)sc4cc23)cc1`, the photoluminescence quantum yield (in ClCCl) is reported as 0.45.
`O=[N+]([O-])c1ccc([N+]2=Cc3ccc4ccccc4c3O[B-]2(F)F)cc1` showed a photoluminescence quantum yield (in ClCCl) of 0.9.
For `COc1ccc(-c2nc(-c3ccccc3)c(N(c3ccccc3)c3ccccc3)s2)cc1`, the photoluminescence quantum yield (in ClC(Cl)Cl) was 0.16.
`O=C1c2ccccc2C2=Cc3cccc[n+]3[B-](F)(F)N12` showed a photoluminescence quantum yield (in ClCCl) of 0.47.
Work on `O=c1c2cc(F)ccc2nc2n1[B-](F)(F)[n+]1ccccc1-2` yielded a photoluminescence quantum yield (in CC#N) of 0.86 and a photoluminescence quantum yield (in ClCCl) of 0.99.
Work on `CN(C)c1ccc(/C=C/c2ccc(-c3nc(C#N)c(C#N)n3C)cc2)cc1` yielded a photoluminescence quantum yield (in C1CCCCC1) of 0.17, a photoluminescence quantum yield (in CC#N) of 0.002 and a photoluminescence quantum yield (in CO) of 0.002. The photoluminescence quantum yield (in ClC(Cl)Cl) was 0.16.
`F[B-]1(F)Oc2c(-c3cccc4c3O[B-](F)(F)[n+]3c(-c5ccccc5)c(-c5ccccc5)n(-c5ccc(C(F)(F)F)cc5)c3-4)cccc2-c2n(-c3ccc(C(F)(F)F)cc3)c(-c3ccccc3)c(-c3ccccc3)[n+]21` showed a photoluminescence quantum yield (in C1CCOC1) of 0.68.
`C=CC12N=N[C@](C=C)(C3C4CCC(C4)C31)C1[C@@H]3CC[C@@H](C3)[C@H]12` (some centres not stated) showed a photoluminescence quantum yield (in CC#N) of 0.16.
Molecule `c1ccc2c(c1)[nH]c1ccccc12` has a photoluminescence quantum yield (in CC#N) of 0.62, a photoluminescence quantum yield (in CCCCCC) of 0.53 and a photoluminescence quantum yield (in CCO) of 0.44.
In the case of `c1ccc(-c2nc(-c3ccccc3)nc(-c3ccc(-n4c5ccccc5c5cc(-n6c7ccccc7c7ccccc76)ccc54)cc3)n2)cc1`, the photoluminescence quantum yield (in Cc1ccccc1) is reported as 0.72.
Work on `CC1=CC(C)=[N+]2C1=Cc1c3ccccc3c(C#Cc3ccccc3)n1[B-]2(F)F` yielded a photoluminescence quantum yield (in CCCCCC) of 0.89, a photoluminescence quantum yield (in CCCCCCCCO) of 0.88 and a photoluminescence quantum yield (in CCOC(C)=O) of 0.84. For the same molecule, the photoluminescence quantum yield (in CN(C)C=O) was 0.6 and the photoluminescence quantum yield (in ClCCl) was 0.89.
Molecule `CCCCC1(c2ccccc2)Nc2c(-c3ccc(N(C)c4ccccc4)cc3)ccc(-c3ccc(N(C)c4ccccc4)cc3)c2N=C1c1ccccc1` (configuration not stated) has a photoluminescence quantum yield (in ClC(Cl)Cl) of 0.01.
`CCCCCCOC(=O)/C=C/C1=CC2=C(c3c(C)cc(C)cc3C)c3cc(/C=C/C(=O)OCCCCCC)cn3[B-](F)(F)[N+]2=C1` gave a photoluminescence quantum yield (in ClCCl) of 0.68.
